# Measurements from patent publication US20240150423A1, “GLP-1 ANALOGUE-MODIFIED DIMERS WITH DIFFERENT CONFIGURATIONS, PREPARATION METHOD THEREOF, AND APPLICATION THEREOF IN TREATMENT OF TYPE II DIABETES” (Nanjing Finepeptide Biopharmaceutical Co.,Ltd, priority 2019, published 2024).
# Tested on: Normal Kunming (KM) mice
# Assay: multiple OGTT (mOGTT): hypoglycemic duration after a single administration
# Type: in vivo
# Conditions: monomeric peptides, single injection at the same dose (1.126 nmol), subcutaneous
# Text: • 1. Methods: Normal Kunming (KM) mice (purchased from Guangdong Animal Center) were used for oral glucose tolerance test (OGTT) to obtain the hypoglycemic activity and durability of drug. […] The blood glucose meter and blood glucose test paper were from Bayer […]. The average blood glucose of each group was used as an evaluation standard: When the average blood glucose of experimental group was higher than that of the NaCl control group for two times, the measurement stopped and the hypoglycemic period compared to the blank control group was the effective duration. • 2. Results • 2.1 single OGTTs: after a single administration, the mice were orally administered glucose once and measured the blood glucose from the tail blood at 0, 10, 20, 40, 60 and 120 min. […] The duration of each monomer group was about 1⁄2-1⁄4 of the duration of its corresponding dimer group. […] Therefore, the 2G3 peptide was selected for treating type II diabetes (T2D) in vivo and subsequent experiments.
row,Substance,Hypoglycemic [days]
1,His-Ala-Glu-Gly-Thr-Phe-Thr-Ser-Asp-Val-Cys-Ser-Tyr-Leu-Glu-Gly-Gln-Ala-Ala-Lys[N-ϵ-(N-α-Palmitoyl)]-Glu-Phe-Ile-Ala-Trp-Leu-Val-Arg-Gly-Arg-Gly-NH2 (HAEGTFTSDVCSYLEGQAAXEFIAWLVRGRG; palmitoyl on Lys; C-terminal amide; Sequence is synthesized; (20)..(20) Xaa is 26Lys[N-e-(N-a-palmitoyl-L-g-glutamyl)]; (31)..(31) N-terminal) [G4 series 25],5
2,His-Ala-Glu-Gly-Thr-Phe-ThrCys-Asp-Val-Ser-Ser-Tyr-Leu-Glu-Gly-Gln-Ala-Ala-Lys[N-ϵ-(N-α-oleoyl-L-γ-glutamyl)]-Glu-Phe-Ile-Ala-Trp-Leu-Val-Arg-Gly-Arg-Gly-OH (HAEGTFTCDVSSYLEGQAAXEFIAWLVRGRG; oleoyl-gamma-Glu on Lys; C-terminal acid; Sequence is synthesized; (20)..(20) Xaa is 26Lys[N-e-(N-a-oleoyl-L-g-glutamyl)]; (31)..(31) C-terminal) [G8 series 58],1
3,His-Ala-Glu-Gly-Thr-Phe-Thr-Ser-Asp-Val-Ser-Cys-Tyr-Leu-Glu-Gly-Gln-Ala-Ala-Lys[N-ϵ-(N-α-Palmitoyl-L-γ-glutamyl)]-Glu-Phe-Ile-Ala-Trp-Leu-Val-Lys[N-ϵ-(N-α-Palmitoyl-L-γ-glutamyl)]-Gly-Arg-Gly-NH2 (HAEGTFTSDVSCYLEGQAAXEFIAWLVXGRG; two palmitoyl-gamma-Glu on Lys; C-terminal amide; Sequence is synthesized; (20)..(20) Xaa is 26Lys[N-e-(N-a-palmitoyl-L-g-glutamyl)]; (28)..(28) Xaa is 26Lys[N-e-(N-a-palmitoyl-L-g-glutamyl)]; (31)..(31) N-terminal) [G5 series 41],3
4,His-aAib-Glu-Gly-Thr-Phe-Thr-Ser-Asp-Val-Ser-Cys-Tyr-Leu-Glu-Gly-Gln-Ala-Ala-Lys[N-ϵ-(N-α-Palmitoyl)]-Glu-Phe-Ile-Ala-Trp-Leu-Val-Arg-Gly-Arg-Gly-NH2 (HXEGTFTSDVSCYLEGQAAXEFIAWLVRGRG; not fully specified; Aib; palmitoyl on Lys side chain; C-terminal amide; Sequence is synthesized; (2)..(2) Xaa is aAib; (20)..(20) Xaa is 26Lys[N-e-(N-a-palmitoyl-L-g-glutamyl)]; (31)..(31) N-terminal) [G4 series 37],7
5,His-aAib-Glu-Gly-Thr-Phe-Thr-Ser-Asp-Val-Ser-Cys-Tyr-Leu-Glu-Gly-Gln-Ala-Ala-Lys[N-ϵ-(N-α-oleoyl)]-Glu-Phe-Ile-Ala-Trp-Leu-Val-Arg-Gly-Arg-Gly-NH2 (HXEGTFTSDVSCYLEGQAAXEFIAWLVRGRG; not fully specified; Aib; oleoyl on Lys side chain; C-terminal amide; Sequence is synthesized; (2)..(2) Xaa is aAib; (20)..(20) Xaa is 26Lys[N-e-(N-a-oleoyl-L-g-glutamyl)]; (31)..(31) N-terminal) [G4 series 36],8
6,His-aAib-Glu-Gly-Thr-Phe-Thr-Ser-Asp-Val-Cys-Ser-Tyr-Leu-Glu-Gly-Gln-Ala-Ala-Lys[N-ϵ-(N-α-oleoyl-L-γ-glutamyl)]-Glu-Phe-Ile-Ala-Trp-Leu-Val-Arg-Gly-Arg-Gly-NH2 (HXEGTFTSDVCSYLEGQAAXEFIAWLVRGRG; αAib; oleoyl-γ-glutamyl on Lys; C-terminal amide; Sequence is synthesized; (2)..(2) Xaa is aAib; (20)..(20) Xaa is 26Lys[N-e-(N-a-oleoyl-L-g-glutamyl)]; (31)..(31) N-terminal) [G2 series 13],7
7,His-aAib-Glu-Gly-Thr-Phe-Thr-Ser-Asp-Val-Ser-Cys--Tyr-Leu-Glu-Gly-Gln-Ala-Ala-Lys[N-ϵ-(N-α-oleoyl-L-γ-glutamyl)]-Glu-Phe-Ile-Ala-Trp-Leu-Val-Arg-Gly-Arg-Gly-NH2 (HXEGTFTSDVSCYLEGQAAXEFIAWLVRGRG; Aib; oleoyl-gamma-Glu on Lys; C-terminal amide; Sequence is synthesized; (2)..(2) Xaa is aAib; (20)..(20) Xaa is 26Lys[N-e-(N-a-oleoyl-L-g-glutamyl)]; (31)..(31) N-terminal) [G6 series 47],8

# Same assay, conditions: single injection at the same dose (1.126 nmol), subcutaneous
row,Substance,Hypoglycemic duration [days]
1,2G3 series 23: disulfide-linked homodimer of monomer SEQ ID NO: 23 (HAEGTFTSDVSCYLEGQAAXEFIAWLVRGRG; disulfide-linked homodimer; Sequence is synthesized; (20)..(20) Xaa is 26Lys[N-e-(N-a-oleoyl-L-g-glutamyl)]; (31)..(31) N-terminal),17
2,2G6 series 49: disulfide-linked homodimer of monomer SEQ ID NO: 49 (HXEGTFTSDVSCYLEGQAAXEFIAWLVRGRG; disulfide-linked homodimer; Sequence is synthesized; (2)..(2) Xaa is bAib; (20)..(20) Xaa is 26Lys[N-e-(N-a-oleoyl-L-g-glutamyl)]; (31)..(31) N-terminal),17
3,2G3 series 22: disulfide-linked homodimer of monomer SEQ ID NO: 22 (HAEGTFTSDVSCYLEGQAAXEFIAWLVRGRG; not fully specified; disulfide-linked homodimer; Sequence is synthesized; (20)..(20) Xaa is 26Lys[N-e-(N-a-palmitoyl-L-g-glutamyl)]; (31)..(31) N-terminal),16
4,2G3 series 21: disulfide-linked homodimer of monomer SEQ ID NO: 21 (HAEGTFTSDVSCYLEGQAAXEFIAWLVRGRG; disulfide-linked homodimer; Sequence is synthesized; (20)..(20) Xaa is 26Lys[N-e-(N-a-oleoyl-L-g-glutamyl)]; (31)..(31) C-terminal),14
5,2G4 series 38: disulfide-linked homodimer of monomer SEQ ID NO: 38 (HXEGTFTSDVSCYLEGQAAXEFIAWLVRGRG; disulfide-linked homodimer; Sequence is synthesized; (2)..(2) Xaa is bAib; (20)..(20) Xaa is 26Lys[N-e-(N-a-oleoyl-L-g-glutamyl)]; (31)..(31) N-terminal),17
6,2G4 series 30: disulfide-linked homodimer of monomer SEQ ID NO: 30 (HXEGTFTSDVCSYLEGQAAXEFIAWLVRGRG; not fully specified; disulfide-linked homodimer; Sequence is synthesized; (2)..(2) Xaa is bAib; (20)..(20) Xaa is 26Lys[N-e-(N-a-oleoyl-L-g-glutamyl)]; (31)..(31) N-terminal),16
